Target: Diazepam Receptor
Assay: Diazepam Receptor Binding Assay in vitro (tritiated diazepam, rat fore-brain membranes)
Settings: membranes from rat fore-brain, 0°-5°, pH=7.5, determined graphically; read-out: IC50, concentration required to inhibit the specific binding of 2 nM of tritiated diazepam by 50%
Description: The anxiolytic effects of said new compounds can also be estimated by the Diazepam Receptor Binding Assay in vitro, e.g. as described in Nature 266, 732 (1977) or Proc. Nat. Acad. Sci. USA 74, 3805 (1977). Diazepam binds specifically and with high affinity to crude synaptosomal membrane preparations from rat fore-brain. […] When tritiated diazepam is used, the interaction of other drugs with said receptor can be readily assessed thus: Membranes from rat fore-brain are incubated at 0°-5° with tritiated diazepam and various concentrations of the test substances in a physiological medium at the pH=7.5. The membranes, containing the receptors with various amounts of tritiated diazepam, are filtered onto glass fiber filters, which are then […] in a liquid scintillation counter.

Structure (SMILES)	IC50
CNC1=Nc2ccc(Cl)cc2C(c2ccccc2)=[N+]([O-])C1 [chlordiazepoxide]	400 nM
CN1C(=O)CN=C(c2ccccc2)c2cc(Cl)ccc21 [diazepam]	5 nM

Reference: US4312870A, “Pyrazoloquinolines” (Ciba-Geigy Corporation, priority 1980, dated 1982)
